Read-outs that look alike come from different tables or passages of the source.
Assay: Cytotoxicity assay (AlamarBlue) in mock infected MT-2 cells
Type: cell-based
Details: human
Procedure, shortened: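 MT-2 cells at 2×10^4 cells/well, mock-infected, treated with 3-fold serial compound dilutions for 96 h at 37 °C. AlamarBlue added for 3 h, fluorescence read at 545/590 nm; % inhibition versus solvent control fitted to a 4-parameter logistic to give CC50.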

[1] = mock infected MT-2 cells, 96 hours, AlamarBlue, read-out: CC50

Structure (SMILES) | CC50 at 96 h [µM] | CC50 at 96 h [1] [µM]
COc1cc2c(cc1OCc1ccccc1)CCNC2/C=C/c1cc2ccccc2n1C(=O)OC(C)(C)C (stereo not drawn) [CH, tert-butyl 2-[(E)-2-[6-(benzyloxy)-7-methoxy-1,2,3,4-tetrahydroisoquinolin-1-yl]ethenyl]-1H-indole-1-carboxylate] | 3.48 | –
CCCCN1CCc2cc(OC)c(OCc3ccccc3)cc2C1/C=C/c1ccc(OCc2ccccc2)c(OC)c1 (stereo not drawn) [Example D, 7-Benzyloxy-1-[(E)-2-(4-benzyloxy-3-methoxy-phenyl)vinyl]-2-butyl-6-methoxy-3,4-dihydro-1H-isoquinoline] | > 10 | –
COc1ccc2cc(/C=C/C3NCCc4cc(OCc5ccccc5)c(OC)cc43)ccc2c1 (stereo not drawn) [DI, 6-(benzyloxy)-7-methoxy-1-[(E)-2-(6-methoxynaphthalen-2-yl)ethenyl]-1,2,3,4-tetrahydroisoquinoline] | 5.84 | –
COc1cc2c(cc1OCc1ccccc1)CCNC2/C=C/c1cc(OC)c(OC)c(OC)c1 (stereo not drawn) [Example AM, 6-Benzyloxy-7-methoxy-1-[(E)-2-(3,4,5-trimethoxyphenyl)vinyl]-1,2,3,4-tetrahydroisoquinoline] | 6 | –
COc1cc(F)c(/C=C/C2NCCc3cc(OCc4ccccc4)c(OC)cc32)c(F)c1 (stereo not drawn) [BU, 6-(benzyloxy)-1-[(E)-2-(2,6-difluoro-4-methoxyphenyl)ethenyl]-7-methoxy-1,2,3,4-tetrahydroisoquinoline] | 10.6 | –
COc1ccc(/C=C/C2NCCc3cc(OCc4ccccc4)c(OC)cc32)c(C)c1 (stereo not drawn) [Example AG, 6-benzyloxy-7-methoxy-1-[(E)-2-(4-methoxy-2-methyl-phenyl)vinyl]-1,2,3,4-tetrahydroisoquinoline] | 9.83 | –
COc1ccc(/C=C/C2c3cc(OC)c(OCc4ccccc4)cc3CCN2C(=O)c2cnccn2)cc1OCc1ccccc1 (stereo not drawn) [Example B, [6-Benzyloxy-1-[(E)-2-(3-benzyloxy-4-methoxy-phenyl)vinyl]-7-methoxy-3,4-dihydro-1H-isoquinolin-2-yl]-pyrazin-2-yl-methanone] | 5 | –
COc1cc(C)c(/C=C/C2=NCCc3cc(OCc4ccccc4)c(OC)cc32)cc1OCc1ccccc1 [Example AE, 6-benzyloxy-1-[(E)-2-(5-benzyloxy-4-methoxy-2-methyl-phenyl)vinyl]-7-methoxy-3,4-dihydroisoquinoline] | 33.5 | –
COc1cc2c(cc1OCc1ccccc1)CCNC2/C=C/c1ccc2occc2c1 (stereo not drawn) [BN, 1-[(E)-2-(1-benzofuran-5-yl)ethenyl]-6-(benzyloxy)-7-methoxy-1,2,3,4-tetrahydroisoquinoline] | 20.7 | –
CCCCOc1cc(/C=C/C2NCCc3cc(OCc4ccccc4)c(OC)cc32)c(C)cc1OC (stereo not drawn) [BL, 6-(benzyloxy)-1-[(E)-2-(5-butoxy-4-methoxy-2-methylphenyl)ethenyl]-7-methoxy-1,2,3,4-tetrahydroisoquinoline] | 1.1 | –
COc1cc2c(cc1OCc1ccccc1)CCNC2/C=C/c1cc2c(cc1C)OCCC2 (stereo not drawn) [CE, 6-(benzyloxy)-7-methoxy-1-[(E)-2-(7-methyl-3,4-dihydro-2H-1-benzopyran-6-yl)ethenyl]-1,2,3,4-tetrahydroisoquinoline] | 4.87 | –
COc1cc2c(cc1OCc1ccccc1)CCNC2/C=C/c1ccc(N2CCN(C)CC2)cc1 (stereo not drawn) [DW, 6-(benzyloxy)-7-methoxy-1-[(E)-2-[4-(4-methylpiperazin-1-yl)phenyl]ethenyl]-1,2,3,4-tetrahydroisoquinoline] | 2.31 | –
COc1cc(Cl)c(/C=C/C2NCCc3cc(OCc4ccccc4)c(OC)cc32)cc1OCc1ccccc1 (stereo not drawn) [Example AC, 6-benzyloxy-1-[(E)-2-(5-benzyloxy-2-chloro-4-methoxy-phenyl)vinyl]-7-methoxy-1,2,3,4-tetrahydroisoquinoline] | 1.9 | –
COc1cc2c(cc1OCc1ccccc1)CCNC2/C=C/c1ccccc1N1CCOCC1 (stereo not drawn) [DH, 6-(benzyloxy)-7-methoxy-1-[(E)-2-[2-(morpholin-4-yl)phenyl]ethenyl]-1,2,3,4-tetrahydroisoquinoline] | 17.8 | –
COc1cccc(-c2ncc(/C=C/C3NCCc4cc(OCc5ccccc5)c(OC)cc43)cn2)c1 (stereo not drawn) [DN, 6-(benzyloxy)-7-methoxy-1-[(E)-2-[2-(3-methoxyphenyl)pyrimidin-5-yl]ethenyl]-1,2,3,4-tetrahydroisoquinoline] | 17.1 | –
COc1ccc(/C=C/C2NCCc3cc(OCc4ccccc4)c(OC)cc32)c(F)c1 (stereo not drawn) [BR, 6-(benzyloxy)-1-[(E)-2-(2-fluoro-4-methoxyphenyl)ethenyl]-7-methoxy-1,2,3,4-tetrahydroisoquinoline] | 10 | –
COc1cc2c(cc1OCc1ccccc1)CCNC2/C=C/c1sccc1C (stereo not drawn) [BS, 6-(benzyloxy)-7-methoxy-1-[(E)-2-(3-methylthiophen-2-yl)ethenyl]-1,2,3,4-tetrahydroisoquinoline] | 11.3 | –
COc1cc2c(cc1OCc1ccccc1)CCNC2/C=C/c1ccc(-n2ccnc2C)cc1 (stereo not drawn) [DM, 6-(benzyloxy)-7-methoxy-1-[(E)-2-[4-(2-methyl-1H-imidazol-1-yl)phenyl]ethenyl]-1,2,3,4-tetrahydroisoquinoline] | 21.1 | –

Structure (SMILES) | CC50 at 96 h [µM] | CC50 at 96 h [1] [µM]
COc1cc2c(cc1OCc1ccccc1)CCNC2/C=C/c1cc(OCC(C)(C)C)c(OC)cc1C (stereo not drawn) [BX, 6-(benzyloxy)-1-[(E)-2-[5-(2,2-dimethylpropoxy)-4-methoxy-2-methylphenyl]ethenyl]-7-methoxy-1,2,3,4-tetrahydroisoquinoline] | 3.4 | –
COc1ccc(/C=C/C2NCCc3cc(OCc4ccccc4)c(OC)cc32)cc1OC (stereo not drawn) [BQ, 6-(benzyloxy)-1-[(E)-2-(3,4-dimethoxyphenyl)ethenyl]-7-methoxy-1,2,3,4-tetrahydroisoquinoline] | 8.7 | –
COc1cc2c(cc1OCc1ccccc1)CCNC2/C=C/c1cc(OCc2ccccc2)ccc1C (stereo not drawn) [Example AD, 6-benzyloxy-1-[(E)-2-(5-benzyloxy-2-methyl-phenyl)vinyl]-7-methoxy-1,2,3,4-tetrahydroisoquinoline] | 3.22 | –
COc1cc2c(cc1OCc1ccccc1)CCNC2/C=C/c1ccccc1N1CCCCC1 (stereo not drawn) [DX, 6-(benzyloxy)-7-methoxy-1-[(E)-2-[2-(piperidin-1-yl)phenyl]ethenyl]-1,2,3,4-tetrahydroisoquinoline] | 5.38 | –
COc1cc2c(cc1OCc1ccccc1)CCNC2/C=C/c1ccccc1C (stereo not drawn) [Example W, 6-benzyloxy-7-methoxy-1-[(E)-2-(o-tolyl)vinyl]-1,2,3,4-tetrahydroisoquinoline] | – | 4
COCCOc1ccccc1/C=C/C1NCCc2cc(OCc3ccccc3)c(OC)cc21 (stereo not drawn) [DE, 6-(benzyloxy)-7-methoxy-1-[(E)-2-[2-(2-methoxyethoxy)phenyl]ethenyl]-1,2,3,4-tetrahydroisoquinoline] | 10 | –
COc1cc2c(cc1OCc1ccccc1)CCNC2/C=C/c1cccc(OCc2ccccc2)c1 (stereo not drawn) [BK, 6-(benzyloxy)-1-[(E)-2-[3-(benzyloxy)phenyl]ethenyl]-7-methoxy-1,2,3,4-tetrahydroisoquinoline] | 4 | –
COc1ccc(/C=C/C2NCCc3cc(OCc4ccccc4)c(OC)cc32)cc1C (stereo not drawn) [EI, 6-(benzyloxy)-7-methoxy-1-[(E)-2-(4-methoxy-3-methylphenyl)ethenyl]-1,2,3,4-tetrahydroisoquinoline] | 11.8 | –
COC(=O)N1CCc2cc(OCc3ccccc3)c(OC)cc2C1/C=C/c1ccc(OC)c(OCc2ccccc2)c1 (stereo not drawn) [Example L, Methyl 6-benzyloxy-1-[(E)-2-(3-benzyloxy-4-methoxy-phenyl)vinyl]-7-methoxy-3,4-dihydro-1H-isoquinoline-2-carboxylate] | > 20 | –
COc1cc2c(cc1OCc1ccccc1)CCNC2/C=C/c1cccc(C(=O)O)c1 (stereo not drawn) [ER, 3-[(E)-2-[6-(benzyloxy)-7-methoxy-1,2,3,4-tetrahydroisoquinolin-1-yl]ethenyl]benzoic acid] | 10 | –
COc1cc2c(cc1OCc1ccccc1)CCNC2/C=C/c1ccccc1C(=O)O (stereo not drawn) [ES, 2-[(E)-2-[6-(benzyloxy)-7-methoxy-1,2,3,4-tetrahydroisoquinolin-1-yl]ethenyl]benzoic acid] | 10 | –
COc1cc2c(cc1OCc1ccccc1)CCNC2/C=C/c1ccc(N(C)C)cc1C (stereo not drawn) [BG, 4-[(E)-2-[6-(benzyloxy)-7-methoxy-1,2,3,4-tetrahydroisoquinolin-1-yl]ethenyl]-N,N,3-trimethylaniline] | 4.44 | –
COc1ccc(/C=C/C2NCCc3cc(OCc4ccccc4)c(OC)cc32)cc1CN1CCCCC1 (stereo not drawn) [EM, 6-(benzyloxy)-7-methoxy-1-[(E)-2-[4-methoxy-3-(piperidin-1-ylmethyl)phenyl]ethenyl]-1,2,3,4-tetrahydroisoquinoline] | 1.8 | –
COc1cc2c(cc1OCc1ccccc1)CCNC2c1cc(OCc2ccccc2)c(OC)cc1C (stereo not drawn) [AY, 6-(benzyloxy)-1-[5-(benzyloxy)-4-methoxy-2-methylphenyl]-7-methoxy-1,2,3,4-tetrahydroisoquinoline] | 5.14 | –
COc1ccc(/C=C/C2NCCc3cc(OCc4ccccc4)c(OC)cc32)cc1COCC(F)(F)F (stereo not drawn) [EO, 6-(benzyloxy)-7-methoxy-1-[(E)-2-{4-methoxy-3-[(2,2,2-trifluoroethoxy)methyl]phenyl}ethenyl]-1,2,3,4-tetrahydroisoquinoline] | 1.94 | –
COc1cc2c(cc1OCc1ccccc1)CCNC2/C=C/c1cccc2c1OCCC2 (stereo not drawn) [CF, 6-(benzyloxy)-1-[(E)-2-(3,4-dihydro-2H-1-benzopyran-8-yl)ethenyl]-7-methoxy-1,2,3,4-tetrahydroisoquinoline] | 9.1 | –
CCc1cc(OC)c(OCc2ccccc2)cc1/C=C/C1NCCc2cc(OCc3ccccc3)c(OC)cc21 (stereo not drawn) [Example AA, 6-benzyloxy-1-[(E)-2-(5-benzyloxy-2-ethyl-4-methoxy-phenyl)vinyl]-7-methoxy-1,2,3,4-tetrahydroisoquinoline] | 3.89 | –
COc1ccc(OC)c(/C=C/C2NCCc3cc(OCc4ccccc4)c(OC)cc32)c1 (stereo not drawn) [EK, 6-(benzyloxy)-1-[(E)-2-(2,5-dimethoxyphenyl)ethenyl]-7-methoxy-1,2,3,4-tetrahydroisoquinoline] | – | 3.6
